Key:
Type in all cases: cell-based
Caco-2 cells [1] = assay: Lucifer Yellow (LY) assay of paracellular permeability in Caco-2 intestinal damage model
Protocol: A protocol was developed based on Caco-2 cell inserts model (CACOREADY™ cells, lot no. 24 676 101716 and no. 24 680 111416, Readycell manufacturer) consisting in two steps:
1. Induction of epithelial damage (40 h incubation in glutamine free medium followed by stress induced by 60 mM ethanol for 4 h)
2. Evaluation of the single products first, and then applied in combination during stress induced by the absence of glutamine (60 h), and with subsequent stress induced by ethanol, to evaluate the efficacy in preventing damage. […]
Cells without damage induction (NC=without damage) and with damage induction (PC) were evaluated with the Lucifer Yellow (LY) assay, which verifies the integrity of the cellular junctions in presence of the test substance. […]
According to the experimental protocol, to evaluate the efficacy of the composition of the invention in damage prevention, sodium butyrate (2 mM concentration) and lactoferrin (400 μg/ml concentration), either alone or in combination, were applied on Caco-2 cells during stress induced by absence of glutamine, increasing the time of said deprivation, with respect to the conditions tested during the development of the model, and therefore of stress induction, to 60 hours, to make more evident differences in cells behavior in the different treatment situations. […] The parameters were evaluated at the end. […]

[2] = system: Occludin and Zonula Occludens in Caco-2 cells; assay: Fluorescence immunolabeling of Occludin and Zonula Occludens in Caco-2 cells after damage induction; conditions: pretreatment 60 h without glutamine, then 60 mM ethanol 4 h
Protocol: As it can be seen by FIG. 1, the damage induced an increase in permeability. The same cells without damage induction (NC) and with damage induction (PC), as indicated above, were further evaluated by fluorescence immunolabeling of Occludina and Zonula Occludens (proteins present in the intestinal membrane intracellular junctions).
(§1) According to the experimental protocol, to evaluate the efficacy of the composition of the invention in damage prevention, sodium butyrate (2 mM concentration) and lactoferrin (400 μg/ml concentration), either alone or in combination, were applied on Caco-2 cells during stress induced by absence of glutamine, increasing the time of said deprivation, with respect to the conditions tested during the development of the model, and therefore of stress induction, to 60 hours, to make more evident differences in cells behavior in the different treatment situations. At the end of 60 hours, the products were removed, and damage was induced for 4 h with 60 mM ethanol. The parameters were evaluated at the end.
To confirm the observed behavior, an evaluation using fluorescence immunolabeling of Occludin and Zonula Occludens was also performed.

Caco-2 cells [3] = assay: Electron Microscopy (SEM) of microvilli of Caco-2 cells after damage induction; conditions: pretreatment 60 h without glutamine, then 60 mM ethanol 4 h, 750x-10000x
Protocol: The same cells without damage induction (NC) and with damage induction (PC), as indicated above, were finally evaluated by Electron Microscopy (SEM) at different magnifications.
as §1
The same cells were finally evaluated also by Electron Microscopy SEM, at various magnifications.

## CCCC(=O)[O-].[Na+] [sodium butyrate, reference compound]
Caco-2 cells [1]; 2 mM sodium butyrate alone during 60 h glutamine deprivation, then 60 mM ethanol 4 h
  increase in LY flux (permeability): over 51%
Caco-2 cells [1]; treatment at the same time as damage induction
  permeability (LY), result in words: significant increase in permeability
[2]
  fluorescence intensity / expression of tight junction proteins (Occludin, Zonula Occludens), result in words: lower expression of the tight junctions' proteins
Caco-2 cells [3]
  effect on microvilli / villous atrophy by SEM, result in words: did not have any effect in combating the partial villous atrophy

From patent US20210077592A1, “COMPOSITION TO PREVENT INTESTINAL DAMAGE” (FUSION FARM S.R.L. SEMPLIFICATA, priority 2017, published 2021)
